These results are taken from ChEMBL document CHEMBL1649272, “Unbound cephalothin pharmacokinetics in adult burn patients are related to the elapsed time after injury” (Antimicrob Agents Chemother, 2009).

Data set [1] is described as follows: Cmax in patient with severe burns at 1 g, iv. The class given is ADME, organism-based. Set-up: dose 1 g, route intravenous. To be noted: human, in vivo.
Data set [2] in a line: Cmax in healthy human at 1 g, iv. The class given is ADME, organism-based. The arrangement: dose 1 g, route intravenous. The following applies: in vivo.
Data set [3] has as its system Homo sapiens. Description: AUC (0 to infinity) in patient with severe burns at 1 g, iv. The data set is classed as ADME, organism-based, Plasma. Set-up: dose 1 g, time infinity, route intravenous. The following applies: in vivo.
For data set [4], the system named is Homo sapiens. As to the kind of experiment: AUC (0 to infinity) in healthy human at 1 g, iv. The class given is ADME, organism-based, Plasma. The following applies: in vivo. The arrangement: dose 1 g, time infinity, route intravenous.
Data set [5] can be described thus: Mean residence time in patient with severe burns at 1 g, iv. The class given is ADME, organism-based. The following applies: human, in vivo.
A short description of data set [6]: Mean residence time in healthy human at 1 g, iv. The class given is ADME, organism-based. The following applies: in vivo.
Data set [7] is described as follows: Half life in patient with severe burns at 1 g, iv. The data set is classed as ADME, organism-based. The following applies: human, in vivo.
Data set [8] in a line: Half life in healthy human at 1 g, iv. The data set is classed as ADME, organism-based. The following applies: in vivo.
Data set [9] can be described thus: Volume of distribution at steady state in patient with severe burns at 1 g, iv. The data set is classed as ADME, organism-based. The following applies: human, in vivo, read-out: Vdss.
Data set [10] in a line: Volume of distribution at steady state in healthy human at 1 g, iv. The following applies: in vivo, read-out: Vdss. The class given is ADME, organism-based.
Data set [11] can be described thus: Terminal half life in patient with severe burns at 1 g, iv. The data set is classed as ADME, organism-based. To be noted: human, in vivo, read-out: beta t1/2 (converted).
Data set [12] is described as follows: Terminal half life in healthy human at 1 g, iv. The class given is ADME, organism-based. To be noted: in vivo, read-out: beta t1/2 (converted).
Data set [13] is described as follows: Renal clearance in patient with severe burns at 1 g, iv. To be noted: human, in vivo, read-out: CL_renal. The data set is classed as ADME, organism-based, Kidney.
Data set [14] can be described thus: Renal clearance in healthy human at 1 g, iv. The class given is ADME, organism-based, Kidney. The following applies: in vivo, read-out: CL_renal.
Data set [15] is described as follows: Plasma protein binding in patient with severe burns at 1 g, iv. The class given is ADME, cell-free. The following applies: human, read-out: PPB (converted).
Data set [16] can be described thus: Plasma protein binding in healthy human at 1 g, iv. The data set is classed as ADME, cell-free. The following applies: read-out: PPB (converted).
In data set [17] the test system is Homo sapiens. Description: Clearance in healthy human at 1 g, iv. The following applies: in vivo.
Data set [18] relates to Homo sapiens. As to the kind of experiment: Clearance in patient with severe burns at 1 g, iv. The following applies: in vivo.

For the compound `CC(=O)OCC1=C(C(=O)O)N2C(=O)[C@@H](NC(=O)Cc3cccs3)[C@H]2SC1` [CEPHALOTHIN], the Cmax (as a rule, the highest concentration seen after dosing) in [1] was found to be 38700 ng/mL; in data set [2], 21300 ng/mL. For the same compound, the AUC – broadly, the area under the concentration-time curve, a measure of exposure – turned out to be 12000 ng·h/mL with Homo sapiens [3] and 9890 ng·h/mL in the data set with Homo sapiens [4]. The MRT (usually the average time that molecules of a dose stay in the body) in [5] was found to be 35.4 min; in data set [6], 22.8 min. For the same compound, the half-life in data set [7] was 24.6 min; in [8], 15.6 min; in data set [11], 54.6 min; in data set [12], 44.4 min. The results for the Vd in data set [9] and in data set [10] were 0.63 L/kg and 0.6 L/kg, respectively. Moreover, the results for the CL renal in [13] and in [14] were 148 mL/min and 98 mL/min, respectively. The fraction unbound in data set [15] was 0.41; in data set [16] it was 0.29. Also, the CL in the data set on Homo sapiens [17] was found to be 26.3 mL/min/kg; in the data set on Homo sapiens [18] it was 19.8 mL/min/kg.
